Measurements published in patent US20060035889A1, “Treatment for methamphetamine addiction and reduction of methamphetamine use using serotonin antagonists” (priority 2004, published 2006).

How the values were obtained:
[1] = test system: cocaine seeking behaviors; details: rats, cited from earlier work; for maintenance of cocaine self-administration: 0.25-1 mg/kg, cocaine 0.5 mg/kg/infusion iv
ventral pallidal neurons = experiment: Electrophysiology of ventral pallidal neurons, i.v. METH dose-response in chloral hydrate-anesthetized rats; format: in vivo, rat
Protocol: Based on the biochemical results and because the ventral pallidum contains one of the highest concentrations of 5-HT in the brain, electrophysiological evaluations of this region in rats behaviorally sensitized to METH were conducted (with a 5-day once daily treatment of 2.5 mg/kg). The acute challenge was intravenously administered METH (via a tail vein cannula) as previously used by T. C. Napier's lab ^e.g., [34] where the drug is given in a cumulative dosing fashion such that each dose, administered in 2 min-intervals, essentially doubles the previous dose. METH was tested using a range of 0.06-4.0 mg/kg in saline vehicle. […] Moreover, this approach establishes if systemic administration of METH, in doses that include those producing behavioral sensitization, are sufficient promote sensitized cellular responding and thus allows for direct comparisons of cellular responding to behavioral outcomes. After a 3-day withdrawal, the ability of intravenously administered METH or 1-(2,5-dimethoxy-4-iodophenyl)-2-aminopropane (DOI) to increase ventral pallidal cell firing was enhanced in chloral hydrate-anesthetized rats, as shown by a leftward shift in the dose-response curve with a […] and an increase in response efficacy for both agonists (FIG. 16) and this occurred without any changes in the portion of neurons showing a rate increase or decrease to the acute METH challenge.
Electrophysiological assessment of the ventral pallidum was also conducted 30 days after repeated METH. […] For each experiment, an i.v. METH dose-response curve (METH was tested using a range of 0.06-2.0 mg/kg in saline vehicle) was generated for one ventral pallidal neuron per rat at 30 days withdrawal from repeated METH. Based on the analysis of curves where there was an excitatory effect of i.v. METH on ventral pallidal neurons (171 animals), there was a diminished excitatory effect of i.v. METH in the ventral pallidum of rats that were pretreated with METH only. This is illustrated by both the curves and corresponding Emax data in FIG. 17. This decrease only at long-term withdrawal mirrors the reduction seen in pallidal pCREB only after 14, but not at 3 day withdrawal from repeated METH (see Example III).

[2] = test system: cocaine-induced behavioral sensitization; details: given in acute withdrawal period from cocaine dosing; cited from earlier work
METH-sensitized rats = experiment: Reversal of METH-induced behavioral sensitization by 5-HT2A/2C antagonists (motor activity after acute METH challenge); format: in vivo, rat; details: ketanserin 1 mg/kg once daily M-F 3 weeks; 1 mg/kg METH challenge w/d day 30/31
Source text: Automation of observational evaluations was accomplished using computerized small animal monitors (AccuScan Instr. Inc., Columbus, Ohio). […] One feature of drug-induced behavioral sensitization is heterogeneity of motor responses and the AccuScan monitors quantify numerous behavioral indices. This is a critical point for the motor profile is exquisitely related to METH dose, the drug history of the rat and observation time. After 3- or 31-days of withdrawal from repeated METH injections, rats were allowed to achieve baseline motor activity with a 30 min habituation period, challenged with 1 mg/kg sc METH and monitored for 90 min.
Multiple 5-HT2A/2C antagonists with differing pharmacological profiles were tested for their ability to ameliorate METH-induced behavioral sensitization when administered after sensitization has developed. […] The doses were selected based on the antagonists' ability to block 5-HT2A- and 5-HT2C-mediated activity and their pharmacokinetic profiles.

5-HT3 = target: T1, 5-HT3 (Homo sapiens, UniProt P46098); details: read-out: receptor affinity (Ki) 5-HT3; cited from earlier work
T1 sequence (P46098 24-478): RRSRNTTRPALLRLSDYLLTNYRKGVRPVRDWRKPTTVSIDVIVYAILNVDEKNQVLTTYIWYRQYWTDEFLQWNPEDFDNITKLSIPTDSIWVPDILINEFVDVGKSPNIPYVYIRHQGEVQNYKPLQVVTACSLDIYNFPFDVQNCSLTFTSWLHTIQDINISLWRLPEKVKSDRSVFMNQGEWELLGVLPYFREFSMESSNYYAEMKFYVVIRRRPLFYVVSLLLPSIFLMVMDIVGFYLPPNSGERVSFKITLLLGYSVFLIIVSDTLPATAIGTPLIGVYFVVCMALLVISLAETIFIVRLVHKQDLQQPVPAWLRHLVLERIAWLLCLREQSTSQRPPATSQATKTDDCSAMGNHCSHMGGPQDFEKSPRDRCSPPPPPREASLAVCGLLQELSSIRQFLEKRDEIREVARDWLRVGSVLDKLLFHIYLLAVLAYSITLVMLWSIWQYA

D1 = D1 (Homo sapiens, UniProt P21728); details: read-out: receptor affinity (Ki) D1; cited from earlier work
Chain of D1 (P21728 whole entry): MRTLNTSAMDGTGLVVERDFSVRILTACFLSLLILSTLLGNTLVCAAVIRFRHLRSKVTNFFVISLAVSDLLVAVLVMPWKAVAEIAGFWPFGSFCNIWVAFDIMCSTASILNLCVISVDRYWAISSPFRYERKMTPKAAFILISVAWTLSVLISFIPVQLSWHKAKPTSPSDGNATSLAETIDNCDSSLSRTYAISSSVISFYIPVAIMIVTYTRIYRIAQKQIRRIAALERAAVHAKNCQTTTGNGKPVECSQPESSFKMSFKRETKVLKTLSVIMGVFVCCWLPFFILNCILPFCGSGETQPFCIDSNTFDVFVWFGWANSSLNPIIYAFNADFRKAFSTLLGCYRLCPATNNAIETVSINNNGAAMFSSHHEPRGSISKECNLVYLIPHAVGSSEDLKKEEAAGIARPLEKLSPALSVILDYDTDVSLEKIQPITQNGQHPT

a = details: read-out: receptor affinity (Ki) a; cited from earlier work
5-HT2C = target: T2, 5-HT2C (Homo sapiens, UniProt P28335); details: read-out: receptor affinity (Ki) 5-HT2C; cited from earlier work
T2 sequence (P28335 33-458): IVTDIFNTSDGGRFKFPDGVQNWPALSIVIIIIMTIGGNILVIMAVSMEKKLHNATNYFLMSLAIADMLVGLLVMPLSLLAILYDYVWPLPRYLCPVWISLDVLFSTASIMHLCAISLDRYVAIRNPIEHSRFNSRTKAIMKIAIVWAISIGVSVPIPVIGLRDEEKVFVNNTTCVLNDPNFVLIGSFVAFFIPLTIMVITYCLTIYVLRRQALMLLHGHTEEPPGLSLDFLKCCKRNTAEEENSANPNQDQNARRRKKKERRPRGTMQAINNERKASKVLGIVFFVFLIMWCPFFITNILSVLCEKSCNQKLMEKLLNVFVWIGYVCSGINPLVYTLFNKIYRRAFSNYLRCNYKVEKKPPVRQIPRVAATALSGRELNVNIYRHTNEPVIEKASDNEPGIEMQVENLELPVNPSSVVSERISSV

5-HT1A = target: T3, 5-HT1A (Homo sapiens, UniProt P08908); details: read-out: receptor affinity (Ki) 5-HT1A; cited from earlier work
T3 sequence (P08908 1-422): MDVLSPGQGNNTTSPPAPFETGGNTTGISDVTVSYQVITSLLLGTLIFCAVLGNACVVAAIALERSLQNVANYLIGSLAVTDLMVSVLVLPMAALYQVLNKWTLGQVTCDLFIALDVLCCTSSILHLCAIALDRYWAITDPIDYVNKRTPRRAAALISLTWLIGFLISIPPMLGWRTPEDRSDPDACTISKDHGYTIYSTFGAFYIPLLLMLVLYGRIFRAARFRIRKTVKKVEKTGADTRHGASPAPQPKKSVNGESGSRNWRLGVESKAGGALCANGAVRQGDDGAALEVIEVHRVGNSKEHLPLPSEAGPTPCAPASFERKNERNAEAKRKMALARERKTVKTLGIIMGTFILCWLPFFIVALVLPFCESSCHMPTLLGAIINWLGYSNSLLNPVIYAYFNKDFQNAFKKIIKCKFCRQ

METH-conditioned rats = experiment: METH-induced conditioned place preference (CPP) with simultaneous motor sensitization; format: in vivo, rat; details: single home cage injection 0.03, 0.1 or 1.0 mg/kg SDZ SER 082 24 h before test (FIG. 13)
Source text: The CPP box (Accuscan, Columbus, Ohio) consists of three Plexiglas compartments, each with distinct visual and tactile cues (on one side, patterned floor with object attached and horizontally striped wall; on the opposite side, smooth floor with no object and vertically striped walls; center—uniformly white floor and walls). The center compartment can be separated from the left and right compartments by removable guillotine doors. Motor activity in three dimensional space, and time spent, in each compartment is detected by two sets of photobeams set at different heights from the floor. Drug conditioning is performed by administering METH to the rat while it is in one compartment, and on the alternating day, saline is administered while the rat is confined to the opposite compartment. Confinement was achieved by blocking access to other compartments using the guillotine door. The center compartment is not seen by the rat during conditioning, and all conditioning sessions last for 45 min.
The inventors have determined that the number of METH-pairings, and the dose of METH, dictate the strength of the drug-environment association (i.e., the magnitude of salience attribution). The test for CPP is determined in a METH-free state (i.e., at least 48 hr after that last METH pairing), at which time the rats are placed in the center compartment and allowed free access to all compartments for 30 min, and the time spent in each compartment is the index of preference. The inventors have determined that the number of METH-pairings, and the dose of METH, dictate the strength of the drug-environment association (i.e., the magnitude of salience attribution) and thus the amount of time spent in the compartment previously paired with METH (FIG. 7), as well as persistence of this effect (i.e., how long it lasts; FIG. 8A). METH-induced motor sensitization can be assessed in several ways, including assessing the capacity of the rat to express an enhanced motor response to an acute METH challenge (FIGS. 9 & 10A).
To efficiently apply this approach to testing of 5-HT2A/2C antagonists, we determined that single pairing protocols of the CPP paradigm can be used to predict efficacy outcomes of 5-HT2A/2C antagonists in long-term tests on these drugs evaluating their capacity to nullify the persistent enhanced salience induced by METH. […] Thus, these protocols should help predict the capacity of novel therapeutic targets to halt a common problem of drug relapse, i.e., the ability of re-exposure to drugs like METH to immediately reinstate their abuse.

5-HT2A = 5-HT2A (Homo sapiens, UniProt P28223); details: read-out: receptor affinity (Ki) 5-HT2A; cited from earlier work
Chain of 5-HT2A (P28223 whole entry, species assumed): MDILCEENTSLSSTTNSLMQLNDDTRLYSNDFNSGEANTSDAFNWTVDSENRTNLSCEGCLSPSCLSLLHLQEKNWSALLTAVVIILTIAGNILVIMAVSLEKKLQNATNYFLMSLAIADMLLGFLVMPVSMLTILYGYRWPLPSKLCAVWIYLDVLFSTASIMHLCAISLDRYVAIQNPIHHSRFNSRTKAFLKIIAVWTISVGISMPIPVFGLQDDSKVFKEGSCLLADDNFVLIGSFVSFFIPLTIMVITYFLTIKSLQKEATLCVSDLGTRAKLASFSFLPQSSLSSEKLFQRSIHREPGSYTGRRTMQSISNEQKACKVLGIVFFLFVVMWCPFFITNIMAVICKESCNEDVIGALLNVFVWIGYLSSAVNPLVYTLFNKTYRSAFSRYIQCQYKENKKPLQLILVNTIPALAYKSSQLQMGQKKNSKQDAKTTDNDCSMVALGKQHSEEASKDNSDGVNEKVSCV

D2 = D2 (Homo sapiens, UniProt P14416); details: read-out: receptor affinity (Ki) D2; cited from earlier work
Chain of D2 (P14416 whole entry): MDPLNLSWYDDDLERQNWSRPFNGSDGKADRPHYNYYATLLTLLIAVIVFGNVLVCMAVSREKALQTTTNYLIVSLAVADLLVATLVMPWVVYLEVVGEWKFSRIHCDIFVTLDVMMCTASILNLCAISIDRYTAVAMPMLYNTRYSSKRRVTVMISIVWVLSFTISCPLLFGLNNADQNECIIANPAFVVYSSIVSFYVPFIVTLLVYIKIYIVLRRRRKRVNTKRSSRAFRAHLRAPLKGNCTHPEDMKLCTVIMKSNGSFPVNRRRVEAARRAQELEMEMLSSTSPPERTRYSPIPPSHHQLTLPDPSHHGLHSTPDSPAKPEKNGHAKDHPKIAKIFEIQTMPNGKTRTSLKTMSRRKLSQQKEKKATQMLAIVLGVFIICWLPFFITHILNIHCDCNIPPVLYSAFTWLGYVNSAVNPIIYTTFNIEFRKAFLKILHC

CN(C)CCO/N=C(/C=C/c1ccc(O)cc1)c1ccccc1F.CN(C)CCO/N=C(/C=C/c1ccc(O)cc1)c1ccccc1F.O=C(O)/C=C/C(=O)O [SR 46349B]
maintenance of cocaine self-administration [1]: Neither SR 46349B (0.25-1 mg/kg) nor SDZ SER 082 (0.25-1 mg/kg) altered

O=C(c1ccc(F)cc1)C1CCN(CCn2c(=O)[nH]c3ccccc3c2=O)CC1 [ketanserin]
Emax of Firing Rate Increases of Acute Meth (ventral pallidal neurons; METH days 1-5, then antagonist, tested 31 days after last METH): 177% ± 18% (n = 4) | established behavioral sensitization to cocaine [2]: reverse the established behavioral sensitization | effect on horizontal activity and vertical movements in METH-pretreated group (METH-sensitized rats): appeared to potentiate the effect | locomotor effects on saline-pretreated animals (acute METH challenge) (METH-sensitized rats): did not produce any locomotor effects

CN1CCN2c3ccccc3Cc3ccccc3C2C1 (stereo not drawn) [mianserin]
established behavioral sensitization to cocaine [2]: reverse the established behavioral sensitization

CN1CCC2CN3CCc4cccc(c43)C2C1 (stereo not drawn) [SDZ SER 082, 4,5,7a,8,9,10,11,11 a,-octahydro-7H-10-methylindolo[1,7,bc][2,6]-napthyridine]
Ki (5-HT3): > 1000 nM | Ki (D1): > 1000 nM | Ki (a): > 1000 nM | Ki (5-HT2C): 15 nM | Ki (5-HT1A): 800 nM | METH-induced CPP after single pairing of 1.0 METH (METH-conditioned rats): reverses METH-induced CPP in a dose-dependent fashion | Ki (5-HT2A): 600 nM | maintenance of cocaine self-administration [1]: Neither SR 46349B (0.25-1 mg/kg) nor SDZ SER 082 (0.25-1 mg/kg) altered | cue- and cocaine priming-induced reinstatement ([1]; cocaine priming 10 mg/kg ip or cue): failed to alter | Ki (D2): > 1000 nM

CN[C@@H](C)Cc1ccccc1 [METH, Methamphetamine]
Emax of Firing Rate Increases of Acute Meth (ventral pallidal neurons; repeated METH days 1-5, then vehicle, P < 0.05 vs saline + vehicle): 161% ± 16% (n = 11)

Cc1nccn1CC1CCc2c(c3ccccc3n2C)C1=O (stereo not drawn) [ondansetron]
established behavioral sensitization to cocaine [2]: reverse the established behavioral sensitization
